Test results taken from patent publication US4576959A, “6-Substituted-4-dialkylaminotetrahydrobenz[c,d]indoles” (priority 1985, dated 1986).

Columns and labels:
[1] = target: ^3 H-serotonin (^3 H-5HT) receptor binding, cerebral cortex; assay: Inhibition of ^3 H-serotonin (^3 H-5HT) specific binding in rat cerebral cortex membranes; set-up: species or system male Wistar rats; details: ^3 H-serotonin 2-3 nM, 15 minutes at 37°, pH=7.4, values in nanomoles of inhibitor, read-out: ^3 H-Ligand-IC50, ^3 H-5HT
[2] = target: T1, ^3 H-spiperone (^3 H-SPIP) receptor binding, cerebral cortex (Rattus norvegicus, UniProt P14842); assay: Inhibition of ^3 H-spiperone (^3 H-SPIP) specific binding in rat cerebral cortex membranes; set-up: species or system male Wistar rats; details: ^3 H-spiperone 0.6-0.7 nM, 15 minutes at 37°, pH=7.4, values in nanomoles of inhibitor, read-out: ^3 H-Ligand-IC50, ^3 H-SPIP
T1 construct: The cerebral cortex was dissected out and then homogenized and centrifuged; from tissue; host or cells: cerebral cortex membranes of male Wistar rats
Experimental: Brain tissue was obtained from 150-200 g. male Wistar rats. The cerebral cortex was dissected out and then homogenized and centrifuged according to the method described by Nelson and coworkers, Mol. Pharmacol., 14, 983-995 (1978), using preincubation in buffer without added monoamine oxidase inhibitor in order to eliminate endogenous serotonin. For receptor binding, each sample contained 300-400 μg. of membrane protein and 10 μM pargyline in addition to the ^3 H-ligand in 1 ml. of 0.05M tris buffer, pH=7.4. The assay of serotinin binding was done following the method of Bennett and Snyder, Mol. Pharmacol., 12, 373-389 (1976), and that for tritiated spiperone according to Peroutka and Snyder, Mol. Pharmacol., 16, 687-699 (1979). The samples were incubated for 15 minutes at 37° and were then filtered through GF/C glass fiber filter pads using a Brandel M-24 cell harvester modified for receptor binding. After two 5 ml. rinses, the filter discs were put into scintillation vials and counted in 10 ml. of Amersham PCS scintillation fluid. Nonspecific binding of ^3 H-serotonin (^3 H-5HT) was determined in the presence of 10^-5 M serotonin and of ^3 H-spiperone in the presence of 10^-6 M LSD. Specific binding was calculated as the difference between total binding with no added nonradioactive compound and the nonspecific binding.

[3] = test system: central serotonin (5HIAA in hypothalamus); assay: Decrease of serotonin metabolite 5HIAA in hypothalamus as a measure of central serotonin agonist activity; format: in vivo, Wistar rats; details: 0.3 mg./kg. s.c., 1 hour before rats were killed; control 2.59 ± .11; * = statistically significant
Experimental: (§1) Secondly, as a measure of central serotonin agonist activity, the decrease of serotonin metabolites in brain was measured. Also the measure of dopamine agonist activity was indicated by changes in dopamine metabolites.
(§2) The following protocol was employed. 150-200 g. Wistar rats were given 0.3 mg./kg. subcutaneously of (±)-4-di-n-propylamino-6-substituted-1,3,4,5-tetrahydrobenz[c,d]indole.Then, 60 minutes later each rat was decapitated and the hypothalamus and striatum were dissected out and extracted. The amounts of homovanillic acid (HVA) and 3,4-dihydroxyphenylacetic acid (DOPAC) in the striatum and of 5-hydroxyindoleacetic acid (5HIAA) in the hypothalamus were measured by high-performance liquid chromatography, using electrochemical detection. Serum corticosteroids were also measured. In the table, columns 1 and 2 give the substitution pattern in the compounds of formula IV, columns 3-5, the 5HT or dopamine metabolite concentrations, and column 6, the serum corticosteroids.

[4] = test system: dopamine (metabolites in striatum); assay: Changes in dopamine metabolites (DOPAC, HVA) in striatum as a measure of dopamine agonist activity; format: in vivo, Wistar rats; details: 0.3 mg./kg. s.c., 1 hour before rats were killed, * = statistically significant; for Dopamine Metabolites In Striatum, HVA: control 4.24 ± .27; for Dopamine Metabolites In Striatum, DOPAC: control 5.58 ± .38
Experimental: as §1, §2

[5] = Serum corticosteroids (corticosterone); format: in vivo, Wistar rats; details: 0.3 mg./kg. s.c., 1 hour before rats were killed; control 7 ± 1; * = statistically significant
Experimental: as §2

[6] = test system: dopamine uptake in bovine striatal membrane; details: cited from earlier work

T1 sequence (P14842 whole entry): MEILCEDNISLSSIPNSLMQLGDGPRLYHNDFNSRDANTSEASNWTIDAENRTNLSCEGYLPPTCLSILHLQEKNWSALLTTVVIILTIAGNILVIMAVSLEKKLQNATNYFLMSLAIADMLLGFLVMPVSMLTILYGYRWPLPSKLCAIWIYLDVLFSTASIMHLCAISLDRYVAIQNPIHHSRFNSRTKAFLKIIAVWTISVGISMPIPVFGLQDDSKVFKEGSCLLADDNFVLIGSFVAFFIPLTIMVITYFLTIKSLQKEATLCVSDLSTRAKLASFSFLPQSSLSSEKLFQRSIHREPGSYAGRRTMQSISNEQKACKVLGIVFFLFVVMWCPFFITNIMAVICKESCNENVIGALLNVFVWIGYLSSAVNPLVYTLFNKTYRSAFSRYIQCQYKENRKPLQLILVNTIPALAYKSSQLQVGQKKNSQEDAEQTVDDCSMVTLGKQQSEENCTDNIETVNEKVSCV

| SMILES | IC50 [1] [nM] | IC50 [2] [nM] | 5HIAA In Hypothalamus [3] | Dopamine Metabolites In Striatum, HVA [4] | Dopamine Metabolites In Striatum, DOPAC [4] | Serum Corticosterone [5] [MCG/100 ML] | dopamine agonist action (inhibiting dopamine uptake in bovine striatal membrane in vitro) [6] |
| --- | --- | --- | --- | --- | --- | --- | --- |
| CCCN(CCC)C1Cc2c[nH]c3ccc([N+](=O)[O-])c(c23)C1 (racemic) [(±)-4-Di-n-propylamino-6-nitro-1,3,4,5-tetrahydrobenz[c,d]indole] | 100 | 400 | 2.29 ± .03 NMoles/G | 2.02 ± .20 NMoles/G | 3.74 ± .11 NMoles/G | 49 ± 2 |  |
| CCCN(CCC)C1Cc2cccc3[nH]cc(c23)C1 (racemic) [(±)-4-(di-n-propyl)amino-1,3,4,5-tetrahydrobenz[c,d]indole] |  |  |  |  |  |  | selective dopamine agonist |
| CCCN(CCC)C1Cc2c[nH]c3ccc(C#N)c(c23)C1 (racemic) [(±)-4-Di-n-propylamino-6-cyano-1,3,4,5-tetrahydrobenz[c,d]indole] | 90 | 390 | 2.34 ± .07 NMoles/G | 2.27 ± .16 NMoles/G | 4.25 ± .25 NMoles/G | 47 ± 4 |  |
| CCCN(CCC)C1Cc2c[nH]c3ccc(C(N)=O)c(c23)C1 (racemic) [(±)-4-Di-n-propylamino-6-carbamoyl-1,3,4,5-tetrahydrobenz[c,d]indole] | 60 | 4980 | 1.58 ± .03 NMoles/G | 4.12 ± .27 NMoles/G | 6.23 ± .56 NMoles/G | 49 ± 2 |  |
